# According to ChEMBL document CHEMBL1764959, “Design, synthesis, and structure-activity relationship studies of thiophene-3-carboxamide derivatives as dual inhibitors of the c-Jun N-terminal kinase” (Bioorg Med Chem, 2011):
# Assays:
# [1] = target: T1, Mitogen-activated protein kinase 8 (Homo sapiens, UniProt P45983); test: Inhibition of JNK1 by TR-FRET assay
# [2] = target: T1, Mitogen-activated protein kinase 8; test: Displacement of biotin-labeled JIP1 peptide from JNK1 by DELFIA assay
# [3] = target: T2, Mitogen-activated protein kinase 9 (Homo sapiens, UniProt P45984); test: Inhibition of JNK2 at 25 uM by TR-FRET assay
# [4] = target: Mitogen-activated protein kinase 10 (Homo sapiens) (UniProt P53779); test: Inhibition of JNK3 at 25 uM by TR-FRET assay
# Mitogen-activated protein kinase 10 (Homo sapiens), sequence (P53779 whole entry): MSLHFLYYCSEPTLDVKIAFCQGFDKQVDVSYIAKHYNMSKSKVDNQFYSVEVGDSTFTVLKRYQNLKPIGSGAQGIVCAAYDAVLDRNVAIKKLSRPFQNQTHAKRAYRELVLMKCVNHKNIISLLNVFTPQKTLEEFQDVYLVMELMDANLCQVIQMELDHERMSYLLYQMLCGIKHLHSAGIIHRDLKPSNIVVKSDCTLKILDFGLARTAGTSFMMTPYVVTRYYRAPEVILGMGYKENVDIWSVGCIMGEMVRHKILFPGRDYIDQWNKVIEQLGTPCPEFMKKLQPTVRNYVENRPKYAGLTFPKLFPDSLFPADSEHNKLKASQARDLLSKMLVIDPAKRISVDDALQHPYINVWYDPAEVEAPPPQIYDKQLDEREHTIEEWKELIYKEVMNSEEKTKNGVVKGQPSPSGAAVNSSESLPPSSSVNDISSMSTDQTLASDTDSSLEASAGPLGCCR
# [5] = target: Mitogen-activated protein kinase 14 (Homo sapiens) (UniProt Q16539); test: Inhibition of MAPK14 at 25 uM by direct TR-FRET assay
# Mitogen-activated protein kinase 14 (Homo sapiens), sequence (Q16539 whole entry): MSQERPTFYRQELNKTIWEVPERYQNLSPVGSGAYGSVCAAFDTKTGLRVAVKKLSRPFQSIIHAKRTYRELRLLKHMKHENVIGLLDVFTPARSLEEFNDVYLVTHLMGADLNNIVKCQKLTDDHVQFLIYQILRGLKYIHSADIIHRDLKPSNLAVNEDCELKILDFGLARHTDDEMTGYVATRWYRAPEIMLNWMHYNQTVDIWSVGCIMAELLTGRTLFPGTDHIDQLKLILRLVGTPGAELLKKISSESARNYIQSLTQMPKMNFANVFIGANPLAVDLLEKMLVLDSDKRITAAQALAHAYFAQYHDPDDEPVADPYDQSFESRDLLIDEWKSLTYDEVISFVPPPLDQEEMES
# [6] = target: Mitogen-activated protein kinase 3 (Homo sapiens) (UniProt P27361); test: Inhibition of MAPK3 at 25 uM by TR-FRET assay
# [7] = target: Mitogen-activated protein kinase 1 (Homo sapiens) (UniProt P28482); test: Inhibition of MAPK1 at 25 uM by TR-FRET assay
# Mitogen-activated protein kinase 1 (Homo sapiens), sequence (P28482 whole entry): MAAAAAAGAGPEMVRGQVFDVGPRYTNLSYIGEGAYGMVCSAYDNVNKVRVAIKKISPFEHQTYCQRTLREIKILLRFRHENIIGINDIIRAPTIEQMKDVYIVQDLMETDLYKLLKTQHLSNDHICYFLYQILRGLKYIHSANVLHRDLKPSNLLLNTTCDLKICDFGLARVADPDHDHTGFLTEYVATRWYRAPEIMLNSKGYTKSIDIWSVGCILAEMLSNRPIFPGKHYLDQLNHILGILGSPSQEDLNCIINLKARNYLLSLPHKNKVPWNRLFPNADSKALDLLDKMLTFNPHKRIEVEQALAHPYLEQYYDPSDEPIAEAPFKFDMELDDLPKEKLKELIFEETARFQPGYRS
# [8] = target: RAC-alpha serine/threonine-protein kinase (Homo sapiens) (UniProt P31749); test: Inhibition of AKT1 at 25 uM by TR-FRET assay
# RAC-alpha serine/threonine-protein kinase (Homo sapiens), sequence (P31749 whole entry): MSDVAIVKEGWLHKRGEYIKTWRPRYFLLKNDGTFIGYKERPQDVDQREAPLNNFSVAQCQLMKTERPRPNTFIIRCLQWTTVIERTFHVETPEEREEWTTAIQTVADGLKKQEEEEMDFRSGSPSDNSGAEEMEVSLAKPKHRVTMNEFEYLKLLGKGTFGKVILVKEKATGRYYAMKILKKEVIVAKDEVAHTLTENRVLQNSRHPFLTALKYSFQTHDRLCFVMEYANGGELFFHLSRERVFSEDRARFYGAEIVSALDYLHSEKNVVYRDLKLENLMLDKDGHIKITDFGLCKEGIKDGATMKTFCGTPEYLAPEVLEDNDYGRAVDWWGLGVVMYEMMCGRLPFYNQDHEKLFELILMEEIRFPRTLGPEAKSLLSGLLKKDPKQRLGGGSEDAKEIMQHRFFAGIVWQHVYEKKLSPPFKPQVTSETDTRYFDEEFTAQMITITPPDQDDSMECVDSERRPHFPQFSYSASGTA
# [9] = target: 5'-AMP-activated protein kinase catalytic subunit alpha-1 (Homo sapiens) (UniProt Q13131); test: Inhibition of AMPK A1 at 25 uM by TR-FRET assay
# [10] = target: Aurora kinase A (Homo sapiens) (UniProt O14965); test: Inhibition of AURK A at 25 uM by TR-FRET assay
# [11] = target: Serine/threonine-protein kinase B-raf (Homo sapiens) (UniProt P15056); test: Inhibition of BRAF at 25 uM by TR-FRET assay
# [12] = target: Calcium/calmodulin-dependent protein kinase type 1 (Homo sapiens) (UniProt Q14012); test: Inhibition of CAMK1 at 25 uM by TR-FRET assay
# Calcium/calmodulin-dependent protein kinase type 1 (Homo sapiens), sequence (Q14012 whole entry, looked up): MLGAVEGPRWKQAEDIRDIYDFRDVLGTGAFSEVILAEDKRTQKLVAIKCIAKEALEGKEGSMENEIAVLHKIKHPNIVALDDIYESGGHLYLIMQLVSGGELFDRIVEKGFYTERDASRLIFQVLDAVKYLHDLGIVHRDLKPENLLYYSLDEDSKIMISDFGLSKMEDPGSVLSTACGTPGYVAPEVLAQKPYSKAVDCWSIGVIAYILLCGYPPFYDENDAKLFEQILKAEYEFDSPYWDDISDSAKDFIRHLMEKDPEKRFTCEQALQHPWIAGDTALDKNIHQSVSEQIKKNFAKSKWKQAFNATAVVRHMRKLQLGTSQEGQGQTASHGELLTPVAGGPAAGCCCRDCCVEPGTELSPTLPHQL
# [13] = target: Cyclin-dependent kinase 1 (Homo sapiens) (UniProt P06493); test: Inhibition of CDK1 at 25 uM by TR-FRET assay
# [14] = target: Serine/threonine-protein kinase Chk1 (Homo sapiens) (UniProt O14757); test: Inhibition of CHEK1 at 25 uM by TR-FRET assay
# [15] = target: Inhibitor of nuclear factor kappa-B kinase subunit alpha (Homo sapiens) (UniProt O15111); test: Inhibition of CHUK at 25 uM by TR-FRET assay
# [16] = target: Serine/threonine-protein kinase mTOR (Homo sapiens) (UniProt P42345); test: Inhibition of FRAP1 at 25 uM by TR-FRET assay
# [17] = target: Glycogen synthase kinase-3 alpha (Homo sapiens) (UniProt P49840); test: Inhibition of GSK3alpha at 25 uM by TR-FRET assay
# Glycogen synthase kinase-3 alpha (Homo sapiens), sequence (P49840 2-483 limits assumed): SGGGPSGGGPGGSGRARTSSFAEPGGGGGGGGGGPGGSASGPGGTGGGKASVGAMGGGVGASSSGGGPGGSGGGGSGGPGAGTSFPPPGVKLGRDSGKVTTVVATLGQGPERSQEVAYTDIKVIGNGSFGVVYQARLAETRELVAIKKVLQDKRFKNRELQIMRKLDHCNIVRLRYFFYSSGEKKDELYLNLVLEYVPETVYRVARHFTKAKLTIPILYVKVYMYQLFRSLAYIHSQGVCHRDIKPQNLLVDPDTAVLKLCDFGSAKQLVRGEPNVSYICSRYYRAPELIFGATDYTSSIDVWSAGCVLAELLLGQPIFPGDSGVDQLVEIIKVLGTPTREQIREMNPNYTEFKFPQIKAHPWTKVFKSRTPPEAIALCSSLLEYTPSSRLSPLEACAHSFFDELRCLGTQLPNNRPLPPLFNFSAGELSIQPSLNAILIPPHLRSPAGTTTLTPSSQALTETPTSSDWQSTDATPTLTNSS
# [18] = target: Dual specificity mitogen-activated protein kinase kinase 1 (Homo sapiens) (UniProt Q02750); test: Inhibition of MAK2K1 at 25 uM by TR-FRET assay
# Dual specificity mitogen-activated protein kinase kinase 1 (Homo sapiens), sequence (Q02750 whole entry): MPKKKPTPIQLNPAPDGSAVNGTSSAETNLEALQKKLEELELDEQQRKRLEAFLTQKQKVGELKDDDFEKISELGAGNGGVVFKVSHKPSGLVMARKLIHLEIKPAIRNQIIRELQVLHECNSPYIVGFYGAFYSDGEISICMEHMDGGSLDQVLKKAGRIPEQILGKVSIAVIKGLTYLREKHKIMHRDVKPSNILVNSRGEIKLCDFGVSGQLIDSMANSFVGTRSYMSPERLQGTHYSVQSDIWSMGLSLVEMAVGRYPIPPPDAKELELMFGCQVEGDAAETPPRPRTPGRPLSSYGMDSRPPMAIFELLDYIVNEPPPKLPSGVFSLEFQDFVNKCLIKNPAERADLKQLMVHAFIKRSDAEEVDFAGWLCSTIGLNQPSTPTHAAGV
# [19] = target: Mitogen-activated protein kinase kinase kinase 9 (Homo sapiens) (UniProt P80192); test: Inhibition of MAPK3K9 at 25 uM by TR-FRET assay
# [20] = target: Mitogen-activated protein kinase 14 (Homo sapiens) (UniProt Q16539); test: Inhibition of MAPK14 at 25 uM by TR-FRET assay
# [21] = target: Serine/threonine-protein kinase Nek1 (Homo sapiens) (UniProt Q96PY6); test: Inhibition of NEK1 at 25 uM by TR-FRET assay
# Serine/threonine-protein kinase Nek1 (Homo sapiens), sequence (Q96PY6 whole entry): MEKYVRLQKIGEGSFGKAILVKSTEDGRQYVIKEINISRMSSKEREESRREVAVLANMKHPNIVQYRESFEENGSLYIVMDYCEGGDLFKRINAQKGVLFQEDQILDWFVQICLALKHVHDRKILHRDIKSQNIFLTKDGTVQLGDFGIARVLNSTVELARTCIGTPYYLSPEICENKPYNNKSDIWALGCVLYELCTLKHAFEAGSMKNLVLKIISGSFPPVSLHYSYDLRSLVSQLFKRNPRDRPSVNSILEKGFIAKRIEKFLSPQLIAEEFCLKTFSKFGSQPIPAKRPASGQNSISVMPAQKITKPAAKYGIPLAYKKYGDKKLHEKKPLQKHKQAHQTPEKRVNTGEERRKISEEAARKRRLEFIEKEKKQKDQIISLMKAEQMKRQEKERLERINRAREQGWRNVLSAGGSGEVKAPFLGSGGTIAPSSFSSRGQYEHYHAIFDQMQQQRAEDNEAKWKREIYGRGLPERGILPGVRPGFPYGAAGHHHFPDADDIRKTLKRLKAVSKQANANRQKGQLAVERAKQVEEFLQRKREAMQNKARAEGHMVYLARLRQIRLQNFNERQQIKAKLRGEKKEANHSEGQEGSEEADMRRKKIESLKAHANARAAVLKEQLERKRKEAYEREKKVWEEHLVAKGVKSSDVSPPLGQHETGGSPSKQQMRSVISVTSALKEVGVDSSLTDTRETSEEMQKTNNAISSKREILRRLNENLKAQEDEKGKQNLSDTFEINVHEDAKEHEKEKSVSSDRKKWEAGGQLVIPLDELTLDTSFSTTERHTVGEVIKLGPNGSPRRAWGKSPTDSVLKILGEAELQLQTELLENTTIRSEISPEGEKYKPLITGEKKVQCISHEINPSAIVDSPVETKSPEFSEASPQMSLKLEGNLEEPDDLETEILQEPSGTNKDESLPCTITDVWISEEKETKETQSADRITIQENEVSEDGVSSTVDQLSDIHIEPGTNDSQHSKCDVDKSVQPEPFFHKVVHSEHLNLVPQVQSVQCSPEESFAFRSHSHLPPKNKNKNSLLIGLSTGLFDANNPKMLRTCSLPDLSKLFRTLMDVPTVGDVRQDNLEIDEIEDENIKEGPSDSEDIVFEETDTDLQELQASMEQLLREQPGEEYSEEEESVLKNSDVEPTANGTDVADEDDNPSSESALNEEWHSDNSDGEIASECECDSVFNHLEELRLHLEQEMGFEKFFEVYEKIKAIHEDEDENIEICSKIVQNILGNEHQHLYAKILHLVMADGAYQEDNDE
# [22] = target: 3-phosphoinositide-dependent protein kinase 1 (Homo sapiens) (UniProt O15530); test: Inhibition of PDK1 at 25 uM by direct TR-FRET assay
# [23] = target: Phosphatidylinositol 4,5-bisphosphate 3-kinase catalytic subunit alpha isoform (Homo sapiens) (UniProt P42336); test: Inhibition of PI3Kalpha at 25 uM by TR-FRET assay
# [24] = target: Serine/threonine-protein kinase pim-1 (Homo sapiens) (UniProt P11309); test: Inhibition of PIM1 at 25 uM by TR-FRET assay
# Serine/threonine-protein kinase pim-1 (Homo sapiens), sequence (P11309 whole entry, looked up): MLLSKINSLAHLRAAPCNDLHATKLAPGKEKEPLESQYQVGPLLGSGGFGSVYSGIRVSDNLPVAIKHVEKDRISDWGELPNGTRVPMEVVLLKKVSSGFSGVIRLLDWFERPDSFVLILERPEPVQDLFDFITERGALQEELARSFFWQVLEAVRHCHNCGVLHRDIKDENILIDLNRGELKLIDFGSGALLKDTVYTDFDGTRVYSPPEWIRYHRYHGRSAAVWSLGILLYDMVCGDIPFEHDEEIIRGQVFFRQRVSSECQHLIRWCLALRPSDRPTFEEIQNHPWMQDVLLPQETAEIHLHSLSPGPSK
# [25] = target: Protein kinase C alpha type (Homo sapiens) (UniProt P17252); test: Inhibition of PRKCA at 25 uM by TR-FRET assay
# [26] = target: Rho-associated protein kinase 1 (Homo sapiens) (UniProt Q13464); test: Inhibition of ROCK1 at 25 uM by TR-FRET assay
# [27] = target: Sphingosine kinase 1 (Homo sapiens) (UniProt Q9NYA1); test: Inhibition of SPHK1 at 25 uM by TR-FRET assay
# [28] = target: Mitogen-activated protein kinase kinase kinase kinase 2 (Homo sapiens) (UniProt Q12851); test: Inhibition of MAP4K2 at 25 uM by TR-FRET assay
# [29] = target: T2, Mitogen-activated protein kinase 9; test: Binding affinity to JNK2
# Plasma = test: Metabolic stability in rat plasma after 60 mins by LC/MS analysis; assay type: ADME, cell-free; conditions: 1 h
# [30] = target: T1, Mitogen-activated protein kinase 8; conditions: 25 uM
# Description: Inhibition of JNK1 at 25 uM by TR-FRET assay
# Liver microsomes = test: Half life in rat liver microsomes by LC/MS analysis; assay type: ADME, Microsome
# T1 sequence (P45983 whole entry): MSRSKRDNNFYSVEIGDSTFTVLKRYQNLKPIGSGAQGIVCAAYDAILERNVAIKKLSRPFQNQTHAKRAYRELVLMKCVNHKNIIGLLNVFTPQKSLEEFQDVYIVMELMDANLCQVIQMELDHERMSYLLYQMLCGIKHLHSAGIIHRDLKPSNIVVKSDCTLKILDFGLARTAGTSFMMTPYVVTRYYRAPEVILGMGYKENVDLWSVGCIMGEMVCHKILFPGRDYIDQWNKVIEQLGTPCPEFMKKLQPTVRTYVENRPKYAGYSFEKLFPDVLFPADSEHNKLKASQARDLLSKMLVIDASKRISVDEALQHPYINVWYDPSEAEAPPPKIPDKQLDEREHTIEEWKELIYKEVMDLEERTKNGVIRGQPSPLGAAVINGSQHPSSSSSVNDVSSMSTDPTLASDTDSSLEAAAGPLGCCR
smiles,measurement,setting,value
NC(=O)c1ccsc1NC(=O)Cc1ccccc1Br,IC50,[1],2.9 µM
NC(=O)c1ccsc1NC(=O)CN1CCN(C(=O)C2CC2)CC1,IC50,[1],83.5 µM
NC(=O)c1ccsc1NC(=O)Cc1ccc(Br)cc1,IC50,[1],> 25 µM
NC(=O)c1ccsc1NC(=O)Cc1csc(-c2ccccc2)n1,IC50,[1],> 25 µM
NC(=O)c1ccsc1NC(=O)Cc1cccc([N+](=O)[O-])c1,IC50,[1],> 25 µM
NC(=O)c1ccsc1NC(=O)Cc1ccc2c(c1)CCC2,IC50,[1],2.5 µM
NC(=O)c1ccsc1NC(=O)CN1CCN(S(=O)(=O)c2ccccc2C(F)(F)F)CC1,IC50,[1],75.1 µM
NC(=O)c1ccsc1NC(=O)Cc1csc2ccccc12,IC50,[1],1.3 µM
same,IC50,[2],4.62 µM
same,inhibition,[3],72%
same,inhibition,[4],18%
same,inhibition,[5],2%
same,inhibition,[6],3%
same,inhibition,[7],4%
same,inhibition,[8],5%
same,inhibition,[9],0%
same,inhibition,[10],0%
same,inhibition,[11],2%
same,inhibition,[12],2%
same,inhibition,[13],3%
same,inhibition,[14],0%
same,inhibition,[15],0%
same,inhibition,[16],0%
same,inhibition,[17],16%
same,inhibition,[18],0%
same,inhibition,[19],0%
same,inhibition,[20],11%
same,inhibition,[21],0%
same,inhibition,[22],0%
same,inhibition,[23],4%
same,inhibition,[24],0%
same,inhibition,[25],0%
same,inhibition,[26],0%
same,inhibition,[27],1%
same,inhibition,[28],1%
same,Kd,[29],0.64 µM
same,Stability,Plasma,Stable
same,inhibition,[30],79%
CC(C)c1ccc(CC(=O)Nc2sccc2C(N)=O)cc1,IC50,[1],> 25 µM
NC(=O)c1ccsc1NC(=O)Cc1ccc([N+](=O)[O-])cc1,IC50,[1],2.9 µM
NC(=O)c1ccsc1NC(=O)Cc1ccc(-c2ccccc2)cc1,IC50,[1],> 50 µM
NC(=O)c1ccsc1NC(=O)Cc1cccc(F)c1,IC50,[1],9.4 µM
O=C(Cc1cccc2ccccc12)Nc1sccc1C(=O)O,IC50,[1],> 100 µM
COc1ccccc1CC(=O)Nc1sccc1C(N)=O,IC50,[1],11.9 µM
NC(=O)c1ccc(NC(=O)Cc2cccc3ccccc23)s1,IC50,[1],> 100 µM
NC(=O)c1ccsc1NC(=O)Cc1ccc2c(c1)OCO2,IC50,[1],1.8 µM
NC(=O)c1ccsc1NC(=O)Cc1ccc2ccc3cccc4ccc1c2c34,IC50,[1],> 50 µM
NC(=O)c1ccsc1NC(=O)Cc1cc(F)cc(F)c1,IC50,[1],8.2 µM
NC(=O)c1ccsc1NC(=O)Cc1ccc(Cl)cc1,IC50,[1],18.7 µM
NC(=O)c1ccsc1NC(=O)Cc1ccccc1Cl,IC50,[1],1.4 µM
same,t1/2,Liver microsomes,27 min
same,Stability,Plasma,Stable
NC(=O)c1ccsc1NC(=O)Cc1ccc(F)c(F)c1,IC50,[1],10.2 µM
N#Cc1ccsc1NC(=O)Cc1cccc2ccccc12,IC50,[1],> 100 µM
N#Cc1ccc(CC(=O)Nc2sccc2C(N)=O)cc1,IC50,[1],3.4 µM
NC(=O)c1ccsc1NC(=O)Cc1ccc(F)cc1F,IC50,[1],9.7 µM
Cc1csc(NC(=O)Cc2cccc3ccccc23)c1C(N)=O,IC50,[1],> 25 µM
NC(=O)c1ccsc1NC(=O)Cc1c(F)cccc1F,IC50,[1],7.4 µM
Cc1cccc(CC(=O)Nc2sccc2C(N)=O)c1,IC50,[1],5.4 µM
CCOc1ccc(CC(=O)Nc2sccc2C(N)=O)cc1,IC50,[1],1.9 µM
COc1cccc(CC(=O)Nc2sccc2C(N)=O)c1,IC50,[1],2.6 µM
NC(=O)c1ccsc1NC(=O)Cc1c(F)c(F)c(F)c(F)c1F,IC50,[1],> 50 µM
NC(=O)c1ccsc1NC(=O)Cc1cccc(Br)c1,IC50,[1],1.8 µM
same,t1/2,Liver microsomes,24 min
same,Stability,Plasma,Stable
NC(=O)c1ccsc1NC(=O)Cc1c[nH]c2ccccc12,IC50,[1],9.4 µM
NC(=O)c1ccsc1NC(=O)Cc1ccc(F)cc1,IC50,[1],5.1 µM
NC(=O)c1ccsc1NC(=O)Cc1cccc(C(F)(F)F)c1,IC50,[1],7.6 µM
NC(=O)c1ccsc1NC(=O)/C=C/c1ccccc1,IC50,[1],> 100 µM
NC(=O)c1ccsc1NC(=O)Cc1coc2ccccc12,IC50,[1],> 25 µM
COc1ccc(CC(=O)Nc2sccc2C(N)=O)cc1,IC50,[1],5.7 µM
COc1ccc2c(CC(=O)Nc3sccc3C(N)=O)c(Br)ccc2c1,IC50,[1],> 25 µM
NC(=O)c1ccsc1NC(=O)c1ccccc1,IC50,[1],5.9 µM
CC(C)Cc1ccc(CC(=O)Nc2sccc2C(N)=O)cc1,IC50,[1],> 25 µM
COc1ccc2cc(Br)ccc2c1CC(=O)Nc1sccc1C(N)=O,IC50,[1],> 25 µM
NC(=O)c1ccsc1NC(=O)Cc1nc2ccccc2[nH]1,IC50,[1],> 25 µM
NC(=O)c1ccsc1NC(=O)CN1CCN(Cc2ccco2)CC1,IC50,[1],7.6 µM
COC(=O)c1ccsc1NC(=O)Cc1cccc2ccccc12,IC50,[1],> 100 µM
NC(=O)c1ccsc1NC(=O)Cc1ccccc1F,IC50,[1],8.3 µM
Cc1cc(C)cc(CC(=O)Nc2sccc2C(N)=O)c1,IC50,[1],2.7 µM
NC(=O)c1ccsc1NC(=O)Cc1cccc(I)c1,IC50,[1],1.8 µM
NC(=O)c1ccsc1NC(=O)Cc1ccc2ccccc2c1,IC50,[1],> 25 µM
NC(=O)c1ccsc1NC(=O)Cc1c(F)cccc1Cl,IC50,[1],12.5 µM
NC(=O)c1ccsc1NC(=O)Cc1cccnc1,IC50,[1],8.1 µM
Cc1ccc(CC(=O)Nc2sccc2C(N)=O)cc1,IC50,[1],4.3 µM
Cc1ccccc1CC(=O)Nc1sccc1C(N)=O,IC50,[1],6 µM
NC(=O)c1ccsc1NC(=O)Cc1ccccc1,IC50,[1],3.6 µM
CC1CN(CC(=O)Nc2sccc2C(N)=O)CC(C)O1 (configuration not stated),IC50,[1],65.3 µM
NC(=O)c1ccsc1NC(=O)CCc1ccccc1,IC50,[1],> 100 µM
COc1cc(CC(=O)Nc2sccc2C(N)=O)cc(OC)c1,IC50,[1],3.1 µM
NC(=O)c1ccsc1NC(=O)Cc1ccc2c(c1)CCCC2,IC50,[1],3.6 µM
NC(=O)c1ccsc1NC(=O)CN1CCOCC1,IC50,[1],> 50 µM
NC(=O)c1ccsc1NC(=O)Cc1csc2nc(-c3cccs3)cn12,IC50,[1],2.5 µM
NC(=O)c1ccsc1NC(=O)Cc1cc(Cl)c2c(c1)OCCCO2,IC50,[1],1.9 µM
COc1ccc(CC(=O)Nc2sccc2C(N)=O)cc1OC,IC50,[1],> 25 µM
NC(=O)c1ccsc1NC(=O)Cc1cc(F)cc2c1OCOC2,IC50,[1],4.9 µM
NC(=O)c1ccsc1NC(=O)Cc1ccc(C(F)(F)F)cc1,IC50,[1],6.4 µM
Cc1cnc2sc(CC(=O)Nc3sccc3C(N)=O)cn12,IC50,[1],2.5 µM
NC(=O)c1ccccc1NC(=O)Cc1cccc2ccccc12,IC50,[1],> 100 µM
Cc1cc(C(N)=O)c(NC(=O)Cc2cccc3ccccc23)s1,IC50,[1],> 25 µM
N#Cc1cccc(CC(=O)Nc2sccc2C(N)=O)c1,IC50,[1],20.9 µM
NC(=O)c1ccsc1NC(=O)Cc1cc(F)ccc1F,IC50,[1],5.8 µM
NC(=O)c1ccsc1NC(=O)Cc1ccc(OC(F)(F)F)cc1,IC50,[1],5.8 µM
NC(=O)c1ccsc1NC(=O)Cc1ccccc1I,IC50,[1],3.4 µM
NC(=O)c1ccsc1NC(=O)Cc1cccc(Cl)c1,IC50,[1],2.6 µM
Cc1sc(NC(=O)Cc2cccc3ccccc23)c(C(N)=O)c1C,IC50,[1],26 µM
NC(=O)c1ccsc1NC(=O)Cc1nc(-c2cccs2)cs1,IC50,[1],> 25 µM
